Experimental findings from patent US20050282910A1, “Methods of application of chemical compounds having therapeutic activities in treating cancers” (priority 2003, published 2005) are described below.

One assay deals with HL60/adr. Put plainly: Reversal of MRP1-mediated drug resistance, MTT cytotoxicity of anticancer agents. The assay is classed as cell-based, human. Conditions: for IC50 (ng/ml) +Schisandrin B: anticancer agent in the presence of Schisandrin B (10 μg/ml); for RF (reversal folds of drug resistance): by Schisandrin B (10 μg/ml). As for the experimental part: Assays were carried out in triplicate against MDR cancer cell HL60/adr. MTT assays as described previously (X.

The next assay has as its target T1, MRP1 (Homo sapiens, UniProt P33527).
T1 construct: human cancer cell line HL60/adr, an MDR cell line characterized by MRP1 overexpression; endogenous in cells; host or cells: HL60/adr (human MDR cancer cell line)
Put plainly: Daunorubicin accumulation in HL60/adr cells (MRP1-mediated drug efflux), flow cytometry. The assay is classed as cell-based. Conditions: 2 μg/ml daunorubicin; 60 minutes; FIG. 7. The source says:
MRP1 functions as a drug pump that unilaterally pumps the anticancer agents out of MDR cancer cells. Inhibition of MRP1 results in an increase of intracellular drug concentration within cancer cells.
(In flow cytometry, cells or beads pass a laser one at a time.)

For assay [1], the system named is human leukemia MDR cell line K562/adr. Nature of the assay: Reversal of P-glycoprotein-mediated drug resistance by Schisandrin A, Schisandrol A, Schisantherin A, MTT cytotoxicity of anticancer agents. Type of assay: cell-based. Conditions: FIG. 3. As for the experimental part:
Assays were carried out in triplicate against human leukemia MDR cell line K562/adr, human breast cancer MDR cell line MCF7/adr, and human epidermoid carcinoma MDR cell line KBv200.

T1 sequence (P33527 whole entry): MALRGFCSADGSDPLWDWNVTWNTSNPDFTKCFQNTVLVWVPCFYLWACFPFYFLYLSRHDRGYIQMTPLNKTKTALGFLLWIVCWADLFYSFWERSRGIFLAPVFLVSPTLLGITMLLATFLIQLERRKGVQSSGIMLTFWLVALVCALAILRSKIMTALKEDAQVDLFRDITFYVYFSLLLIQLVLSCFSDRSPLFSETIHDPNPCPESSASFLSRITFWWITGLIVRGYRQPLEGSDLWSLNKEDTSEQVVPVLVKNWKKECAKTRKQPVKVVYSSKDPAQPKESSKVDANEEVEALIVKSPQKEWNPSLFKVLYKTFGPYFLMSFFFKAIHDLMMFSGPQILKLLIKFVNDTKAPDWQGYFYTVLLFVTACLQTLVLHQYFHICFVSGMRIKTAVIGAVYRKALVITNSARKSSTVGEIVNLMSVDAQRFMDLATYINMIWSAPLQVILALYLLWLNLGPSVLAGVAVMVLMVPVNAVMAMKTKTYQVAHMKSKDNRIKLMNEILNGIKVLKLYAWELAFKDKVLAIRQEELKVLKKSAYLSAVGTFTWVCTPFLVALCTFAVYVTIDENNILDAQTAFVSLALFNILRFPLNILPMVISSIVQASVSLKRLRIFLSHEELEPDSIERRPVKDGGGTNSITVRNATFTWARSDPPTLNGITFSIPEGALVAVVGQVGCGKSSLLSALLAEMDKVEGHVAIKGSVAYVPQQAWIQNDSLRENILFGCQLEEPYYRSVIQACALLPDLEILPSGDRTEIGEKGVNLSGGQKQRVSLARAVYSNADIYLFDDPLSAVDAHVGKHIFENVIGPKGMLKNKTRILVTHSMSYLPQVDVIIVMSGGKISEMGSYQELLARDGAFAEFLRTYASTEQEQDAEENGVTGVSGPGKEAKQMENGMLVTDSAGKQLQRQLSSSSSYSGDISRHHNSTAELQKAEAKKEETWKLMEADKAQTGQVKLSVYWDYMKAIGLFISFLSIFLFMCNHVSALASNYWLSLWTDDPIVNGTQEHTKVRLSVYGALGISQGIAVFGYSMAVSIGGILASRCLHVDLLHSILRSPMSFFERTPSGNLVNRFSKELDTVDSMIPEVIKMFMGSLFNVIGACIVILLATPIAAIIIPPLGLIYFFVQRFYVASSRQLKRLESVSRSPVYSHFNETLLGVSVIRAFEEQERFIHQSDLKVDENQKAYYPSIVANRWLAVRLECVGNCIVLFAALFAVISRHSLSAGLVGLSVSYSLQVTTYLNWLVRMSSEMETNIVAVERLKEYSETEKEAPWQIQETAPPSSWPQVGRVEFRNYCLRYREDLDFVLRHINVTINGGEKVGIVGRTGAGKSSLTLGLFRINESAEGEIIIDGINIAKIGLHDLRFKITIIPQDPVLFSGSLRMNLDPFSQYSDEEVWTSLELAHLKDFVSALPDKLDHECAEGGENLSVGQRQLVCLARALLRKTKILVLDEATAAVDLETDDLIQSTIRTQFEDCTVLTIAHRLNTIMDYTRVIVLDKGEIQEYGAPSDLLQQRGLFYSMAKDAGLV

`COc1cc([C@@H]2c3cc4c(cc3[C@@H](O[C@@H]3O[C@@H]5CO[C@@H](C)O[C@H]5[C@H](O)[C@H]3O)[C@H]3COC(=O)[C@H]23)OCO4)cc(OC)c1O` [VP-16]: the “IC50 (ng/ml) −Schisandrin B” value with HL60/adr (HL60/adr, anticancer agent in the absence of Schisandrin B, 72 hours) is greater than 10000 ng/mL. Besides, in the assay on HL60/adr (HL60/adr, 72 hours), the “IC50 (ng/ml) +Schisandrin B” value is 1490 ± 213 ng/mL. In the assay with HL60/adr (HL60/adr), the “RF (reversal folds of drug resistance)” value is greater than 6.7.

On to `O=C1c2c(O)ccc(O)c2C(=O)c2c(NCCNCCO)ccc(NCCNCCO)c21` [Mitoxantrone], for which the “IC50 (ng/ml) +Schisandrin B” value in the assay on HL60/adr (HL60/adr, 72 hours) is less than 1 ng/mL. Moreover, the “RF (reversal folds of drug resistance)” value in the assay on HL60/adr (HL60/adr) is given as greater than 68. In the assay on HL60/adr (Homo sapiens, HL60/ADR, 72 h, HL60/adr, anticancer agent in the absence of Schisandrin B, 72 hours, read-out: IC50 (ng/ml) −Schisandrin B), the IC50 was 68 ng/mL.

For `COc1cc2c(c(OC)c1OC)-c1c(cc(OC)c(OC)c1OC)C[C@H](C)[C@H](C)C2` [Schisandrin A], the “drug sensitivity of HL60/adr toward the anticancer agents (in words)” value with HL60/adr (compound 10 μg/ml) was “enhanced”. Moreover, the “daunorubicin accumulation within HL60/adr cells (in words)” value at MRP1 is reported as “increased with the increasing concentration”. Further, the “sensitivity of MDR cancer cell K562/adr to daunorubicin (in words)” value in assay [1] is recorded as “increase the sensitivity”. The entries for the “increase of sensitivity of K562/adr to daunorubicin” value in assay [1] (Schisandrin A 1 μg/ml), in assay [1] (Schisandrin A 10 μg/ml) and in assay [1] (Schisandrin A 20 μg/ml) were “about 8 folds”, roughly 71 folds and roughly 100 folds, respectively.
